Reference: patent US8252781B2, “1,2-diazetidin-3-one derivatives and drugs containing same” (Kowa Company, Ltd., priority 2008, dated 2012)

Columns and labels:
Format in all cases: biochemical
[1] = biological target: T1, human 11β-HSD2 (Homo sapiens, UniProt P80365); assay: Enzyme inhibitory activity, human 11β-HSD2 (lysate of stably expressing HEK293 cells, cortisol by competitive ELISA); conditions: Table 1; human 11β-HSD2, cell lysate, 37° C. for 1 hour; read-out: h HSD2 in vitro assay (IC50 uM)
T1 construct: The obtained PCR products of about 0.9 kbp, 1.2 kbp, and 0.9 kbp were subcloned into an expression vector pcDNA3.1+/Zeo; expressed in transfected cells
T1 sequence (P80365 1-405): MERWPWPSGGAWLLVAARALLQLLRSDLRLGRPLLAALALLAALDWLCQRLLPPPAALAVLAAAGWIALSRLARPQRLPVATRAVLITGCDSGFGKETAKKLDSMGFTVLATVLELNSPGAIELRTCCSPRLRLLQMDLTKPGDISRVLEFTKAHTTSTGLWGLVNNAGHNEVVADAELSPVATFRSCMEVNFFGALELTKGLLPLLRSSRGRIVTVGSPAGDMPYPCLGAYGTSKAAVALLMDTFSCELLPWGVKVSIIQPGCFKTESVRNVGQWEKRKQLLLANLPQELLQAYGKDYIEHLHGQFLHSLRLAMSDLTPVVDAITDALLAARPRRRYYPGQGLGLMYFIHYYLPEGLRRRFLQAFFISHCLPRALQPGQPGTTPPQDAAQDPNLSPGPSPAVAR
Method: 1. Human 11β-HSD1-, Human 11β-HSD2- and Mouse 11β-HSD1-Gene Clonings and Establishment of Stably Expressing Cells
Human 11β-HSD1-, human 11β-HSD2-, and mouse 11β-HSD1-gene clonings were conducted using as a template a reverse transcription product of human-liver RNA, human-kidney RNA (CELL APPLICATIONS), and mouse-kidney RNA respectively, by means of PCR cloning with reference to nucleotide sequences of Genbank Accession Nos. NM_005525, NM_000196, and NM_008288. The obtained PCR products of about 0.9 kbp, 1.2 kbp, and 0.9 kbp were subcloned into an expression vector pcDNA3.1+/Zeo (Invitrogen).
Human 11β-HSD1- and human 11β-HSD2-expressing vectors were transfected into human kidney-derived cell line, HEK293 cells, using a transfection reagent, jet PEI (Funakoshi). Mouse 11β-HSD1 was transfected to Chinese hamster ovary-derived cell line, CHO-K1 cells. Selection was conducted with 200-400 μg/mL of zeocine (Invitrogen) to provide stably expressing-cell clones. The stably expressing cells were suspended in buffer solution A (20 mmol/L Tris-HCl, pH 7.4, 250 mmol/L sucrose, 1 mmol/L EGTA, 1 mmol/L EDTA, 1 mmol/L MgCl2), sonicated, and then stored at −80° C.
2. Assay of Enzyme Inhibitory Activity
An enzymatic reaction was conducted using a polystyrene 96-well plate. Each well was added with 1 μL of a test agent dissolved in DMSO and then diluted (0.003 to 3 mmol/L), and further added with 10 μL of cell lysate diluted to a concentration of 0.1 mg/mL to 0.4 mg/mL. Next, 90 μL of buffer solution A containing substrate (100 nmol/L cortisone or cortisol) and coenzyme (400 μmol/L NADPH or NAD+) was added and the mixture was incubated at 37° C. for 1 hour. The enzymatic reaction was stopped by treating at 95° C. for 3 minutes. Cortisol that was present in the reaction solution was determined by a competitive ELISA shown below.
Anti-rabbit IgG antibody (Chemi-con) diluted to 2 μg/mL with carbonate buffer solution (pH 9.6) was added in 100 μL each to a 96-well immuno plate (Nunc) and immobilized by an incubation at 4° C. overnight. 50 μL of enzymatic reaction solution was put onto the plates, and further, anti-cortisol antibody (Cosmo Bio) and HRP-labeled cortisol (Cosmo Bio), diluted with buffer solution B (25 mmol/L Tris-HCl pH 7.4, 137 mmol/L NaCl, 2.68 mmol/L KCl), were added in 50 μL respectively and incubated at 4° C. overnight. After washed three times with buffer solution B containing 0.05% Tween 20, the plates were allowed to develop color by adding 100 μL of color reagent, TMB (Moss). The color reaction was stopped by 25 μL of 1 mol/L sulfuric acid and the absorbance was determined at 450 nm with a microplate reader (Molecular Device, VersaMax).
The values of human 11β-HSD1, human 11β-HSD2, and mouse 11β-HSD1 activities were subtracted from 100, and the resultant values were regarded as the respective 11β-HSD inhibition rates of example compounds. […] The comparison of human 11β-HSD1 and human 11β-HSD2 inhibiting activities is shown in Table 1, and the comparison of human 11β-HSD1 and mouse 11β-HSD1 inhibiting activities is shown in Table 2.

[2] = biological target: T2, human 11β-HSD1 (Homo sapiens, UniProt P28845); assay: Enzyme inhibitory activity, human 11β-HSD1 (lysate of stably expressing HEK293 cells, cortisol by competitive ELISA); conditions: Table 1; human 11β-HSD1, cell lysate, 37° C. for 1 hour; read-out: h HSD1 in vitro assay (IC50 uM)
T2 construct: The obtained PCR products of about 0.9 kbp, 1.2 kbp, and 0.9 kbp were subcloned into an expression vector pcDNA3.1+/Zeo; expressed in transfected cells
How it was run: (§1)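 Sonicated lysates of stably transfected cells (diluted to 0.1–0.4 mg/mL before addition) reacted for 1 h at 37 °C in pH 7.4 Tris/sucrose/EGTA/EDTA/MgCl2 buffer with 100 nmol/L cortisone or cortisol and 400 μmol/L NADPH or NAD+, then were heat-stopped at 95 °C. Inhibition rate = 100 minus residual activity.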

[3] = biological target: T3, mouse 11β-HSD1 (Mus musculus, UniProt P50172); assay: Enzyme inhibitory activity, mouse 11β-HSD1 (lysate of stably expressing CHO-K1 cells, cortisol by competitive ELISA); conditions: Table 2; mouse 11β-HSD1, cell lysate, 37° C. for 1 hour; read-out: m HSD1 in vitro assay (IC50 uM)
T3 construct: The obtained PCR products of about 0.9 kbp, 1.2 kbp, and 0.9 kbp were subcloned into an expression vector pcDNA3.1+/Zeo; expressed in transfected cells
How it was run: as §1

T3 sequence (P50172 whole entry): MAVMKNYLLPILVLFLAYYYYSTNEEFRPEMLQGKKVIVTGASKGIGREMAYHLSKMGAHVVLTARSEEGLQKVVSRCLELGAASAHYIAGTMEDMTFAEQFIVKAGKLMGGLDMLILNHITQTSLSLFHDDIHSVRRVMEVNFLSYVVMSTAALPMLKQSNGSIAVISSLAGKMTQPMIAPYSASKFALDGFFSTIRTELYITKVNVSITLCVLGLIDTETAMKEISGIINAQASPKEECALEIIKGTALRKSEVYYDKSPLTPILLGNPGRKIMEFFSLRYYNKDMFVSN
T2 sequence (P28845 whole entry): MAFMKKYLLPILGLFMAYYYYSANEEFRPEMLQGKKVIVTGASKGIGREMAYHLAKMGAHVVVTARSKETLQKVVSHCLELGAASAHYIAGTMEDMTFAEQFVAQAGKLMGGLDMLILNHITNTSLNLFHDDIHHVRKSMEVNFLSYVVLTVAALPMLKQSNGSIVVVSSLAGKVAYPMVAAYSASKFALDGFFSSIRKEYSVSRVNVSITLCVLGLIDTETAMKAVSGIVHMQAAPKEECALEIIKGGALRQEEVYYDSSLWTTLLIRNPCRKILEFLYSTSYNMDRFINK

Row | SMILES | IC50 [1] | IC50 [2] | IC50 [3]
1 | CC1(C)C(=O)N(C2C3CC4CC(C3)CC2C4)N1c1cccc(Cl)c1Cl (stereo not drawn) [Example 206, 1-(2,3-dichlorophenyl)-4,4-dimethyl-2-(adamantan-2-yl)-1,2-diazetidin-3-one] | 3 to 30 µM | 0.0061 µM | 0.44 µM
2 | CC1(C)C(=O)N(C2CCCCCCC2)N1Cc1ccc(F)cc1Cl [Example 76, 1-(2-chloro-4-fluorobenzyl)-2-cyclooctyl-4,4-dimethyl-1,2-diazetidin-3-one] | 4.8 µM | 0.031 µM | 0.14 µM
3 | CC1(C)C(=O)N(C2C3CC4CC(C3)CC2C4)N1Cc1ccccc1I (stereo not drawn) [Example 40, 1-(2-iodobenzyl)-4,4-dimethyl-2-(adamantan-2-yl)-1,2-diazetidin-3-one] | 10 µM | 0.012 µM | 0.084 µM
4 | COc1ccccc1N1N([C@H]2C3CC4CC2C[C@](Cl)(C4)C3)C(=O)C1(C)C [Example 250, trans-2-(5-chloroadamantan-2-yl)-1-(2-methoxyphenyl)-4,4-dimethyl-1,2-diazetidin-3-one] | > 30 µM | 0.042 µM | 0.13 µM
5 | CC1(C)C(=O)N(C2C3CC4CC(C3)CC2C4)N1Cc1ccc(F)cc1C(F)(F)F (stereo not drawn) [Example 48, 1-[4-fluoro-2-(trifluoromethyl)benzyl]-4,4-dimethyl-2-(adamantan-2-yl)-1,2-diazetidin-3-one] | > 30 µM | 0.031 µM | 0.5 µM
6 | CC1(C)C(=O)N([C@H]2C3CC4CC2C[C@](Cl)(C4)C3)N1c1ccccc1O [Example 253, trans-2-(5-chloroadamantan-2-yl)-1-(2-hydroxyphenyl)-4,4-dimethyl-1,2-diazetidin-3-one] | 3 to 30 µM | 0.013 µM | 0.15 µM
7 | CC1(C)C(=O)N([C@H]2C3CC4CC2C[C@@](C(=O)O)(C4)C3)N1c1cccc2ccccc12 [Example 272, cis-4-[2-(naphthalen-1-yl)-3,3-dimethyl-4-oxo-1,2-diazetidin-1-yl]adamantane-1-carboxylic acid] | > 30 µM | 0.05 µM | 0.9 µM
8 | CC1(C)C(=O)N(C2CCCCCCC2)N1c1cccc(Cl)c1Cl [Example 221, 2-cyclooctyl-1-(2,3-dichlorophenyl)-4,4-dimethyl-1,2-diazetidin-3-one] | 3 to 30 µM | 0.023 µM | 0.29 µM
9 | CC1(C)C(=O)N(C2C3CC4CC(C3)CC2C4)N1c1cccc2ccccc12 (stereo not drawn) [Example 212, 4,4-dimethyl-1-(naphthalen-1-yl)-2-(adamantan-2-yl)-1,2-diazetidin-3-one] | 3 to 30 µM | 0.032 µM | 0.089 µM
10 | CC1(C)C(=O)N(C2CCCCCCC2)N1Cc1cccc(Cl)c1Cl [Example 74, 2-cyclooctyl-1-(2,3-dichlorobenzyl)-4,4-dimethyl-1,2-diazetidin-3-one] | 3 to 30 µM | 0.046 µM | 0.13 µM
